Measured values from patent US11786535B1, “Methods of inhibiting cyclooxygenase” (KING FAISAL UNIVERSITY, priority 2023, dated 2023).

Assays:
COX-1 = COX-1 (Ovis aries, UniProt P05979); experiment: COX inhibitor screening assay kit, COX-1; format: biochemical; details: three separate experiments
Experimental: (§1) In test tubes, 25 mM Tris-HCl, pH 8.0, containing 5 mM EDTA, phenol, and 1 mM hematin was added. The test compounds were dissolved in DMSO and added in concentrations ranging from […] Dimethyl sulfoxide alone was applied to control test containers. COX-1 or COX-2 enzymes were added to the test tubes, which were then preincubated for 10 minutes at 37° C. The arachidonic acid substrate was added, and the tubes were further incubated at 37° C. for 2 minutes. The compound's immunochemical assay was used to calculate the amount of prostaglandin produced.
(§2) Three separate experiments were used to calculate the IC50 values. The selectivity index was calculated as follows: […]

COX-2 = COX-2 (Homo sapiens (Human), UniProt P35354); experiment: COX inhibitor screening assay kit, COX-2; format: biochemical; details: for SI (selectivity index): calculated from COX-1 and COX-2 IC50; for IC50: three separate experiments
COX-2, sequence (P35354 18-604): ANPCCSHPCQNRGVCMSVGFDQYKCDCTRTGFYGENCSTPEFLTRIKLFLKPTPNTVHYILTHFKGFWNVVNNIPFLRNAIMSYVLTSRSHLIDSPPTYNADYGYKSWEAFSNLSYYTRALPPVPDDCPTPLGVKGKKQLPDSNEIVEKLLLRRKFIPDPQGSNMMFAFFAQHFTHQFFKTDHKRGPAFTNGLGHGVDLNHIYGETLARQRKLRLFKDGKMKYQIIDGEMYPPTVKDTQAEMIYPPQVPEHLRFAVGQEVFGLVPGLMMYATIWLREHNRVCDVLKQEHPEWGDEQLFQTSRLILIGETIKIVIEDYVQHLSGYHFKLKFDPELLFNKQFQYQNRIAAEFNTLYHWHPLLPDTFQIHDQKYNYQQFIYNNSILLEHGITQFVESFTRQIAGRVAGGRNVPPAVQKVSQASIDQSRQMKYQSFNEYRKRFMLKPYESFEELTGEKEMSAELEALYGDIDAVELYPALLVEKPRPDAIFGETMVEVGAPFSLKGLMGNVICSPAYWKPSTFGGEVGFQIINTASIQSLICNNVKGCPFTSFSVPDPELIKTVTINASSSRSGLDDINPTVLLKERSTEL
Experimental: as §1, §2

COX-1, sequence (P05979 25-600 limits assumed): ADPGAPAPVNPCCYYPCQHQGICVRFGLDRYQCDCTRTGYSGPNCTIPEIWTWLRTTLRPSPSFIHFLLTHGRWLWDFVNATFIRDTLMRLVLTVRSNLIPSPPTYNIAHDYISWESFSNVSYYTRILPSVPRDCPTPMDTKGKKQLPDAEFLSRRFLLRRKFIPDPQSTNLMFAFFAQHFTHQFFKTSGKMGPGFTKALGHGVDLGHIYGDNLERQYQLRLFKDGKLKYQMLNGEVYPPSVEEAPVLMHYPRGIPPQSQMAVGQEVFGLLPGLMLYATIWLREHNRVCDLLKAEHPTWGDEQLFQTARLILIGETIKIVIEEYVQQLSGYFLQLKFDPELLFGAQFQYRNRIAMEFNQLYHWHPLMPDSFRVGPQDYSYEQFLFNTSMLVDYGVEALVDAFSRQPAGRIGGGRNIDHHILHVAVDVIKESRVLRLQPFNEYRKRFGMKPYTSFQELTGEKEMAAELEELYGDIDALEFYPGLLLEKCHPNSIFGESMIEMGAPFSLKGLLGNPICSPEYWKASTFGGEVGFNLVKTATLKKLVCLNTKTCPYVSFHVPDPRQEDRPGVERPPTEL

SMILES	IC50 (COX-1) [µM]	SI (selectivity index) (COX-2)	IC50 (COX-2) [µM]
COc1ccc(CN(Cc2ccc(F)cc2)CC2CCCO2)cc1CO (stereo not drawn) [Compound 1]	7.62 ± 0.05	36.3	0.21 ± 0.01
COc1cccc(-c2nn(-c3ccccc3)cc2CN(C)CCc2cn[nH]c2)c1 [Compound 2, N-{[3-(3-methoxyphenyl)-1-phenyl-1H-pyrazol-4-yl]methyl}-N-methyl-2-(1H-pyrazol-4-yl)ethanamine]	10.6 ± 0.33	132.64	0.08 ± 0.009
O=C(O)CC1COCCN1Cc1cccc(-c2ccccn2)c1 (stereo not drawn) [Compound 3, {4-[3-(2-pyridinyl)benzyl]-3-morpholinyl}acetic acid]	11.5 ± 0.13	190.88	0.06 ± 0.075
O=C(O)COc1ccc(Cl)cc1C1CC(=O)Nc2cc3[nH]ncc3cc21 (stereo not drawn) [Compound 4, [4-chloro-2-(7-oxo-5,6,7,8-tetrahydro-1H-pyrazole[4,3-g]quinoline-5-yl)phenoxy]acetic acid]	9.19 ± 0.046	95.068	0.097 ± 0.015
